21 compounds from patent US12263171B2, “7-, 8-, and 10-substituted amino triazolo quinazoline derivatives as adenosine receptor antagonists, pharmaceutical compositions and their use” (Merck Sharp & Dohme LLC, priority 2018, dated 2025) can be followed below.

Assay [1] deals with human A2b adenosine receptor (Homo sapiens (Human), UniProt P29275). In words: A2b radioligand filtration binding assay (tritiated proprietary A2b antagonist, HEK293 membranes). Particulars: for IC50: unstarred values: radioligand binding. In a few lines: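 Displacement of a tritiated proprietary A2b antagonist from membranes of HEK293 cells recombinantly expressing human A2b receptor, measured by filtration and scintillation counting. Percent effect was normalized to total and non-specific binding and fitted with a 4-parameter logistic to give IC50.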

The target in assay [2] is human A2a adenosine receptor (Homo sapiens (Human), UniProt P29274). In words: A2a receptor affinity radioligand binding assay ([3H] SCH58261, membranes from HEK293 or CHO cells). Particulars: unstarred values: radioligand binding. The essentials:
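Displacement of tritiated SCH58261 (working dilution 4 nM) from recombinant human A2a receptor membranes (HEK293 or CHO), 60 min at room temperature in Tris pH 7.4/MgCl2 buffer after 15–30 min compound preincubation. Scintillation counting after filtration; normalized percent effect fitted 4-parameter logistic for IC50.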

Chain of human A2a adenosine receptor (P29274 whole entry): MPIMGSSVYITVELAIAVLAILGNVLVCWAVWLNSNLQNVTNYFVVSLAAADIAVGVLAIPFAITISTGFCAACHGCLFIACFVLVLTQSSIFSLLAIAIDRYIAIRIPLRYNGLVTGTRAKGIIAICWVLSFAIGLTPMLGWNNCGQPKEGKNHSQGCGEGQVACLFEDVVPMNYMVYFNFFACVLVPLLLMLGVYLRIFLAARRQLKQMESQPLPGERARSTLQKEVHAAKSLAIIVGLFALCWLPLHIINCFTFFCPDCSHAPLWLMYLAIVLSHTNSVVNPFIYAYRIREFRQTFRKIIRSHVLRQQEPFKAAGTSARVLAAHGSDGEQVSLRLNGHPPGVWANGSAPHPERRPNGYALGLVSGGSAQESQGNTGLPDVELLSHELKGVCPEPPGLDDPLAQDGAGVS
Chain of human A2b adenosine receptor (P29275 whole entry): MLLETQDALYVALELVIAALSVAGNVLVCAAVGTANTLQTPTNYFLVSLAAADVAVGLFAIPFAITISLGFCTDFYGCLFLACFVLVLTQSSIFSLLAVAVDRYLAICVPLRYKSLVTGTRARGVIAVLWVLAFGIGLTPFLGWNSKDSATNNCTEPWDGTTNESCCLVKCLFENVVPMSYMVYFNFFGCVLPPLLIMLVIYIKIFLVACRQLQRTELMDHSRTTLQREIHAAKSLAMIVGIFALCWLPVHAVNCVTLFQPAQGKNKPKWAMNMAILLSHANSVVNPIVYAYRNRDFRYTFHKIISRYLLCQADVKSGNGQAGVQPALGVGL

On to `Cc1cccc2c1nc(N)n1nc(C3CCCN(c4cnn(C)c4)C3)nc21` (single isomer, unassigned) [Example 171, (R or S)-7-methyl-2-(1-(1-methyl-1H-pyrazol-4-yl)piperidin-3-yl)-[1,2,4]triazolo[1,5-c]quinazolin-5-amine], for which the half-maximal inhibitory concentration (IC50) in assay [1] turned out to be 956 nM; in assay [2], 34.9 nM.
For `Cn1cc(N2CCCC(c3nc4c5c(Cl)ccc(Cl)c5nc(N)n4n3)C2)cn1` (single isomer, unassigned) [Example 169, (R or S)-7, 10-dichloro-2-(1-(1-methyl-1H-pyrazol-4-yl)piperidin-3-yl)-[1,2,4]triazolo[1,5-c]quinazolin-5-amine], the 50% inhibitory concentration (IC50) in assay [1] amounted to 4160 nM; in assay [2] it was 7.7 nM.
For the compound `COc1cccc2c1nc(N)n1nc([C@H]3CCO[C@H](c4cnn(C)c4)C3)nc21` [Example 139C], the half-maximal inhibitory concentration (IC50) in assay [1] came out at 1820 nM; in assay [2], 101 nM.
Regarding `COc1cccc2c1nc(N)n1nc([C@@H]3CCCN(c4cc(C)c(=O)n(C)c4)C3)nc21` [Example 93], the IC50 in assay [1] turned out to be 229 nM; in assay [2], 1.5 nM.
For `COc1cccc2c1nc(N)n1nc([C@@H]3CCCN(c4cnn([C@@H]5CCCC[C@]5(C)O)c4)C3)nc21` [Example 42, (1S,2R)-2-(4-((R)-3-(5-amino-7-methoxy-[1,2,4]triazolo[1,5-c]quinazolin-2-yl)piperidin-1-yl)-1H-pyrazol-1-yl)-1-methylcyclohexan-1-ol], the IC50 was found to be 3.5 nM in assay [1] and 1.2 nM in assay [2].
As to `COc1cccc2c1nc(N)n1nc([C@@H]3CCCN(c4cnn(CC5(O)CCCCC5)c4)C3)nc21` [Example 44, (R)-1-((4-(3-(5-amino-7-methoxy-[1,2,4]triazolo[1,5-c]quinazolin-2-yl)piperidin-1-yl)-1H-pyrazol-1-yl)methyl)cyclohexan-1-ol], the IC50 in assay [1] is 132 nM; in assay [2] it was 1.2 nM.
Turning to `COc1cccc2c1nc(N)n1nc([C@@H]3CCCN(c4nn(CC(C)(C)O)cc4C(F)(F)F)C3)nc21` [Example 62, (R)-1-(3-(3-(5-amino-7-methoxy-[1,2,4]triazolo[1,5-c]quinazolin-2-yl)piperidin-1-yl)-4-(trifluoromethyl)-1H-pyrazol-1-yl)-2-methylpropan-2-ol], the IC50 in assay [1] came out at 631 nM; in assay [2] it was 0.3 nM.
The corresponding values for `COc1cccc2c1nc(N)n1nc(C3CCC[C@](O)(c4cnn(C)c4)C3)nc21` (single isomer, unassigned) [Example 134A] are 7750 nM and 61.8 nM.
In the case of `COc1cccc2c1nc(N)n1nc([C@@H]3CCCN(c4cncc(C(F)(F)F)n4)C3)nc21` [Example 104, (R)-7-methoxy-2-(1-(6-(trifluoromethyl)pyrazin-2-yl)piperidin-3-yl)-[1,2,4]triazolo[1,5-c]quinazolin-5-amine], the half-inhibitory concentration (IC50) in assay [1] is 3330 nM; in assay [2] it was 0.1 nM.
Turning to `COc1cccc2c1nc(N)n1nc([C@@H]3CCCN(c4cnn(C5CCC5O)c4)C3)nc21` (single isomer, unassigned) [Example 60A], the IC50 was found to be 281 nM in assay [1] and 1.8 nM in assay [2].
Turning to `COc1ccc2c(c1)nc(N)n1nc([C@@H]3CCCN(c4cnn(CC5(CF)COC5)c4)C3)nc21` [Example 183, (R)-2-(1-(1-((3-(fluoromethyl)oxetan-3-yl)methyl)-1H-pyrazol-4-yl)piperidin-3-yl)-8-methoxy-[1,2,4]triazolo[1,5-c]quinazolin-5-amine], the IC50 in assay [1] is 4070 nM; in assay [2], 157 nM.
Turning to `COc1ccc2c(c1)nc(N)n1nc([C@@H]3CCCN(c4cn(CC(C)(C)O)nc4C)C3)nc21` [Example 180, (R)-1-(4-(3-(5-amino-8-methoxy-[1,2,4]triazolo[1,5-c]quinazolin-2-yl)piperidin-1-yl)-3-methyl-1H-pyrazol-1-yl)-2-methylpropan-2-ol], the IC50 in assay [1] came out at 250 nM; in assay [2], 1 nM.
For `C[C@H]1CC[C@@H](c2nc3c4ccc(Br)cc4nc(N)n3n2)CN1c1cnn(CC(C)(C)O)c1` (single isomer, unassigned) [Example 198, 1-(4-((2S,5R or 2R,5S)-5-(5-amino-8-bromo-[1,2,4]triazolo[1,5-c]quinazolin-2-yl)-2-methylpiperidin-1-yl)-4H-pyrazol-1-yl)-2-methylpropan-2-ol], the figures for the IC50 in assay [1] and in assay [2] were 8.4 nM and 0.4 nM, respectively.
As for `COc1cccc2c1nc(N)n1nc(C3CC(F)CN(c4cnn(CC5(O)CCC5)c4)C3)nc21` (stereo not drawn) [Example 150, 1-((4-(3-(5-amino-7-methoxy-[1,2,4]triazolo[1,5-c]quinazolin-2-yl)-5-fluoropiperidin-1-yl)-1H-pyrazol-1-yl)methyl)cyclobutan-1-ol], the “A2B binding % inh. @ 10000 nM” value in assay [1] (@ 10000 nM, unstarred) was 74% inh. @ 10000 nM. For the same compound, in assay [2], the IC50 came to 80.5 nM.
Take `COc1ccc2c(c1)nc(N)n1nc([C@@H]3CCCN(c4cnn(CC(F)(F)F)c4)C3)nc21` [Example 178, (R)-8-methoxy-2-(1-(1-(2,2,2-trifluoroethyl)-1H-pyrazol-4-yl)piperidin-3-yl)-[1,2,4]triazolo[1,5-c]quinazolin-5-amine]: the concentration for half-maximal inhibition (IC50) in assay [1] amounted to 2.5 nM; in assay [2] it was 2.1 nM.
For `COc1cccc2c1nc(N)n1nc([C@@H]3CCCN(c4cn(CC(F)(F)F)nn4)C3)nc21` [Example 73, (R)-7-methoxy-2-(1-(1-(2,2,2-trifluoroethyl)-1H-1,2,3-triazol-4-yl)piperidin-3-yl)-[1,2,4]triazolo[1,5-c]quinazolin-5-amine], the figures for the half-maximal inhibitory concentration (IC50) in assay [1] and in assay [2] were 1.9 nM and 0.8 nM, respectively.
In the case of `COc1cccc2c1nc(N)n1nc([C@@H]3CCCN(c4ncn(C5CCOCC5)n4)C3)nc21` [Example 68, (R)-7-methoxy-2-(1-(1-(tetrahydro-2H-pyran-4-yl)-1H-1,2,4-triazol-3-yl)piperidin-3-yl)-[1,2,4]triazolo[1,5-c]quinazolin-5-amine], the IC50 is 340 nM in assay [1] and 0.3 nM in assay [2].
Regarding `COc1cccc2c1nc(N)n1nc(C3CCC[C@@](O)(c4cnn(C)c4)C3)nc21` (mixture of isomers) [Example 134B], the figures for the half-inhibitory concentration (IC50) in assay [1] and in assay [2] were 76.7 nM and 1 nM, respectively.
The corresponding values for `COc1cccc2c1nc(N)n1nc([C@@H]3CCCN(c4cnn(C(C)(C)C(=O)NC(C)C)c4)C3)nc21` [Example 38, (R)-2-(4-(3-(5-amino-7-methoxy-[1,2,4]triazolo[1,5-c]quinazolin-2-yl)piperidin-1-yl)-1H-pyrazol-1-yl)-N-isopropyl-2-methylpropanamide] are 1.4 nM and 4.1 nM.
On to `COc1cccc2c1nc(N)n1nc([C@@H]3CCCN(c4cnn([C@H]5CCCC[C@]5(C)O)c4)C3)nc21` [Example 43, (1S,2S)-2-(4-((R)-3-(5-amino-7-methoxy-[1,2,4]triazolo[1,5-c]quinazolin-2-yl)piperidin-1-yl)-1H-pyrazol-1-yl)-1-methylcyclohexan-1-ol], for which the 50% inhibitory concentration (IC50) in assay [1] was 1.9 nM; in assay [2] it was 0.5 nM.
As to `COc1ccc2c(c1)nc(N)n1nc([C@@H]3CCCN(c4cn([C@@H](C)C(C)(C)O)nc4C)C3)nc21` [Example 186B, (S)-3-(4-((R)-3-(5-amino-8-methoxy-[1,2,4]triazolo[1,5-c]quinazolin-2-yl)piperidin-1-yl)-3-methyl-1H-pyrazol-1-yl)-2-methylbutan-2-ol], the values for the IC50 in assay [1] and in assay [2] were 323 nM and 0.4 nM, respectively.

For orientation: IC50 means the point on the concentration scale where inhibition reaches its midpoint.
